Laboratory results taken from paper PMC9238401, “Peptide Conjugates Derived from flg15, Pep13, and PIP1 That Are Active against Plant-Pathogenic Bacteria and Trigger Plant Defense Responses” (Applied and Environmental Microbiology, 2022).
Marks after values point to notes of the source that are not given here. Non-standard residues stand in square brackets, D forms with d. Residues, ends and D or L forms follow the SMILES beside them. *: point of attachment. Butyryl = CCCC(=O)*

How the values were obtained:
[1] = HPLC retention time as indicator of relative hydrophobicity; type: physicochemical; conditions: chromatographic, Kromasil 100 C18 (4.6 mm × 40 mm, 3 μm), linear gradient 2 to 100% B over 12 min, 1 mL/min; A 0.1% aqueous TFA, B 0.1% TFA in CH3CN; used as indicator of relative hydrophobicity
Summary of the method: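 Reversed-phase HPLC on Kromasil 100 C18 (4.6 × 40 mm, 3 μm), 0.1% TFA in water/acetonitrile, linear 2–100% B at 1 mL/min over 7 min (method A, UV 220 nm) or 12 min (method B). Retention time serves as relative hydrophobicity.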

horse erythrocytes = conditions: TRIS buffer pH 7.2, 1 h, 37°C, absorbance 540 nm, relative to melittin 100 μM, ± confidence interval (α = 0.05)
Summary of the method: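 Hemolysis measured as absorbance at 540 nm of supernatant, expressed as percent of melittin-lysed control after buffer subtraction. Compound solutions (750, 500, 300, 100 μM, Tris-buffered saline pH 7.2) were combined 1:1 with washed horse red cells for 1 h, 37°C, shaking.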

[2] = tested on: tomato plants cv. Rio Grande, defense-related genes; assay: Induction of defense gene expression in tomato plants (RT-qPCR); type: in vivo; conditions: peptide sprayed at 125 μM, leaves 24 h after application, ΔΔCT vs actin and nontreated control; for PR1 expression, fold induction: above 2 = overexpression
Method: The capacity to induce the expression of genes related to defense response in tomato plants was evaluated for the peptide conjugates flg15-BP387, flg15-BP475, and PIP1-BP475 and the monomers flg15 and PIP1 (Table 2).
Seeds of tomato cv. Rio Grande plants were sown in hydroponic seed plugs (rockwool) and germinated and grown in an environmentally controlled greenhouse at 25 ± 2°C (day) and 18 ± 2°C (night), with a minimum relative humidity of 60% and with a photoperiod of 16 h light and 8 h dark. Then, 2-week-old seedlings (two cotyledons) were transplanted into rockwool plugs (7.5 × 7.5 × 6.5 cm; Gordan Iberica, Spain). Tomato plants were maintained until use under the same environmental conditions.
The 2-week-old tomato plants cv. Rio Grande were sprayed with aqueous solutions of the peptides flg15-BP387, flg15-BP475, PIP1-BP475, flg15, and PIP1 at 125 μM until the runoff point. […] Water-sprayed plants were used as nontreated controls (NTC). The experimental design consisted of three replicates of three plants per treatment. Leaf samples were collected 24 h after product application and processed to extract RNA for reverse transcriptase quantitative PCR (RT-qPCR) assays. Plant material was roughly ground in liquid nitrogen and was transferred into tubes with two glass beads. Afterward, the frozen samples were finely ground using the TissueLyser II system (Qiagen, Hilden, Germany) at a frequency of 30 Hz for 1 min. Total RNA was extracted from leaves (100 mg) using PureLink plant RNA reagent (Invitrogen, Life Technologies) according to the manufacturer’s manual. The RNA was solubilized in RNase-free water (Ambion, Thermo Fisher Scientific, USA) and was routinely subjected to DNase treatment (Ambion Turbo DNA-free; Invitrogen Life Technologies, Carlsbad, CA, USA) to remove any contaminant DNA. In each step, the RNA was quantified using a NanoDrop ND-1000 spectrophotometer (Nanodrop Technologies, Wilmington, DE, USA). First-strand cDNA was generated from leaf RNA using reverse transcriptase (high-capacity cDNA reverse transcription kit; Applied Biosystems, Foster City, CA, USA) according to the manufacturer’s manual.
To test gene defense induction in the treated tomato plants, a quantitative PCR (qPCR) assay was performed. qPCR was carried out in a fluorometric thermal cycler (7500 Fast real-time PCR system; Applied Biosystems, USA) by using a Mix SYBR green PCR master mix (Applied Biosystems, Foster City, CA, USA) as previously described ([49]). Melting curve analysis was performed after each amplification to verify amplification specificity. A constitutive gene (actin) was used as a reference control ([52]), and the following genes implicated in plant defense response were analyzed using the previously described primers: pathogenesis-related protein-1 (PR1) and chitinase A (PR3) ([81]), subtilisin-like protease P69G (PR7), peroxidase 1 (PR9), WRKY3 transcription factor (WRKY3), hairpin-induced protein-like (Harp), blue-copper-binding protein gene (BCB) and ethylene responsive transcription factor (ERF) ([71]), and basic β-1,3-endoglucanase (GluB) ([52]). The primer concentration was 100 nM for all the genes except for the actin gene, for which the concentration was 300 nM. A calibration curve was prepared by cloning the corresponding target sequence in the pSpark cloning vector (Canvax, Córdoba, Spain), which was used to transform Escherichia coli DH5α. Plasmids were purified (Qiagen Iberia, S.L., Madrid, Spain), plasmid copies were quantified, and decimal dilutions were prepared.

CCCC(=O)NCCCC[C@H](NC(=O)[C@H](CCCCN)NC(=O)[C@H](CC(C)C)NC(=O)[C@@H](NC(=O)[C@H](CCCCN)NC(=O)[C@H](CCCCN)NC(=O)[C@@H](Cc1ccccc1)NC(=O)[C@H](CC(C)C)NC(=O)[C@H](CCCCN)NC(=O)[C@H](CCCCN)NC(=O)[C@H](Cc1c[nH]cn1)NC(=O)[C@@H](NC(=O)[C@H](Cc1c[nH]cn1)NC(=O)[C@@H](NC(=O)CNC(=O)[C@H](Cc1ccc(O)cc1)NC(C)=O)[C@@H](C)CC)[C@@H](C)O)[C@@H](C)CC)C(=O)N[C@@H](CC(C)C)C(N)=O [PIP1-BP475] (Ac-YGIHTHKKL[dF]KKILKK(Butyryl)L-NH2)
tR (min), HPLC retention time (method B) [1]: 5.55 min
Percent hemolysis at 50 μM (horse erythrocytes): 4 ± 0.4%
Percent hemolysis at 150 μM (horse erythrocytes): 11 ± 0.5%
Percent hemolysis at 250 μM (horse erythrocytes): 18 ± 0.1%
Percent hemolysis at 375 μM (horse erythrocytes): 24 ± 0.5%
BCB expression, fold induction [2]: 2.07 ± 0.11^d fold
ERF expression, fold induction [2]: 0.81 ± 0.30 fold
GluB expression, fold induction [2]: 0.80 ± 0.07 fold
Harp expression, fold induction [2]: 2.25 ± 0.12^d fold
PR3 expression, fold induction [2]: 7.36 ± 1.05^d fold
PR7 expression, fold induction [2]: 1.29 ± 0.19^d fold
PR9 expression, fold induction [2]: 1.99 ± 0.11^d fold
WRKY3 expression, fold induction [2]: 1.46 ± 0.11 fold
PR1 expression, fold induction [2]: 0.64 ± 0.36 fold

CCCC(=O)NCCCC[C@H](NC(=O)[C@H](CCCCN)NC(=O)[C@H](CC(C)C)NC(=O)[C@@H](NC(=O)[C@H](CCCCN)NC(=O)[C@H](CCCCN)NC(=O)[C@@H](Cc1ccccc1)NC(=O)[C@H](CC(C)C)NC(=O)[C@H](CCCCN)NC(=O)[C@H](CCCCN)NC(=O)[C@H](C)NC(=O)[C@@H](NC(=O)[C@H](CCC(N)=O)NC(=O)[C@H](CC(C)C)NC(=O)CNC(=O)[C@H](C)NC(=O)[C@H](C)NC(=O)[C@H](CC(=O)O)NC(=O)[C@H](CC(=O)O)NC(=O)[C@H](CCCCN)NC(=O)[C@H](C)NC(=O)[C@H](CO)NC(=O)[C@H](CC(N)=O)NC(=O)[C@@H](NC(=O)[C@H](CCCNC(=N)N)NC(C)=O)[C@@H](C)CC)[C@@H](C)CC)[C@@H](C)CC)C(=O)N[C@@H](CC(C)C)C(N)=O [flg15-BP475] (Ac-RINSAKDDAAGLQIAKKL[dF]KKILKK(Butyryl)L-NH2)
tR (min), HPLC retention time (method B) [1]: 6.79 min
Percent hemolysis at 50 μM (horse erythrocytes): 7 ± 0.6%
Percent hemolysis at 150 μM (horse erythrocytes): 28 ± 2.3%
Percent hemolysis at 250 μM (horse erythrocytes): 43 ± 2.7%
Percent hemolysis at 375 μM (horse erythrocytes): 46 ± 3.6%
BCB expression, fold induction [2]: 5.84 ± 1.38^d fold
ERF expression, fold induction [2]: 0.67 ± 0.15^d fold
GluB expression, fold induction [2]: 4.31 ± 0.82^d fold
Harp expression, fold induction [2]: 3.68 ± 0.91^d fold
PR3 expression, fold induction [2]: 10.96 ± 1.85^d fold
PR7 expression, fold induction [2]: 5.82 ± 0.78^d fold
PR9 expression, fold induction [2]: 3.83 ± 0.25^d fold
WRKY3 expression, fold induction [2]: 1.16 ± 0.26 fold
PR1 expression, fold induction [2]: 2.02 ± 0.07^d fold

RINSAKDDAAGLQIA-OH [flg15, plant defense elicitor peptide, 15 amino acids of the N-terminal conserved domain of bacterial flagellin; monomer]
Percent hemolysis at 50 μM (horse erythrocytes): 0 ± 0%
Percent hemolysis at 150 μM (horse erythrocytes): 0 ± 0%
Percent hemolysis at 250 μM (horse erythrocytes): 0 ± 0%
Percent hemolysis at 375 μM (horse erythrocytes): 0 ± 0%
BCB expression, fold induction [2]: 8.14 ± 2.48^d fold
ERF expression, fold induction [2]: 1.09 ± 0.44 fold
GluB expression, fold induction [2]: 6.05 ± 2.40^d fold
Harp expression, fold induction [2]: 4.28 ± 1.49^d fold
PR3 expression, fold induction [2]: 17.68 ± 4.18^d fold
PR7 expression, fold induction [2]: 9.26 ± 2.06^d fold
PR9 expression, fold induction [2]: 6.24 ± 2.25^d fold
WRKY3 expression, fold induction [2]: 1.41 ± 0.84 fold
PR1 expression, fold induction [2]: 8.32 ± 3.35^d fold

YGIHTH-NH2 [PIP1, plant defense elicitor peptide identified through combinatorial chemistry; monomer]
Percent hemolysis at 50 μM (horse erythrocytes): 4 ± 0.8%
Percent hemolysis at 150 μM (horse erythrocytes): 0.5 ± 0.3%
Percent hemolysis at 250 μM (horse erythrocytes): 0 ± 2%
Percent hemolysis at 375 μM (horse erythrocytes): 1 ± 0.1%
BCB expression, fold induction [2]: 1.99 ± 0.40^d fold
ERF expression, fold induction [2]: 0.58 ± 0.11^d fold
GluB expression, fold induction [2]: 0.96 ± 0.32 fold
Harp expression, fold induction [2]: 1.97 ± 0.45^d fold
PR3 expression, fold induction [2]: 3.59 ± 1.35^d fold
PR7 expression, fold induction [2]: 1.13 ± 0.26 fold
PR9 expression, fold induction [2]: 1.23 ± 0.18 fold
WRKY3 expression, fold induction [2]: 0.94 ± 0.35 fold
PR1 expression, fold induction [2]: 1.00 ± 0.39 fold
